In brackets after ≈: the same amount, converted by molar mass.

The nature of series [1]: Lipophilicity, log P of the compound. As to conditions: octanol/water. The format is physicochemical.
Series [2] deals with Mycobacterium tuberculosis. Nature of the series: microbe, parasite or virus in culture. In kind it is functional. Particulars: H37Rv ATCC 27294, 672 h.
Description: Antitubercular activity against Mycobacterium tuberculosis H37Rv ATCC 27294 after 28 days by agar dilution method
Series [3] is described as follows: Selectivity index, ratio of cytotoxicity against HEK293T cells to antitubercular activity against Mycobacterium tuberculosis H37Rv ATCC 27294. The format is toxicity, cell-based, HEK-293T. As to conditions: human, read-out: Selectivity Index.
The nature of series [4]: Cytotoxicity against HEK293T cells at 50 ug/ml after 72 hrs by MTT assay. Particulars: human, read-out: INH. In kind it is cell-based, HEK-293T. (Tetrazolium assays rely on reduction of a dye to a coloured formazan, in cell work by metabolically active cells.)

In turn, `CCCCc1cn(CC(=O)NC23CC4CC(CC(C4)C2)C3)nn1` yielded a logP in series [1] of 2.68. For the same molecule, the MIC in series [2] is 50 µg/mL (≈ 158 µM).

In the case of `CCCCCc1cn(CC(=O)NC23CC4CC(CC(C4)C2)C3)nn1`, the logP in series [1] came to 3.1. The same molecule yielded an MIC in series [2] of 50 µg/mL (≈ 151 µM).

Molecule `CCCCCCc1cn(CC(=O)NC23CC4CC(CC(C4)C2)C3)nn1` displayed a logP in series [1] of 3.52. Moreover, in series [2], the MIC is 50 µg/mL (≈ 145 µM).

Turning to `O=C(Cn1cc(CCCO)nn1)NC12CC3CC(CC(C3)C1)C2`, the selectivity ratio in series [3] is more than 15. Also, in series [1], the lipophilicity (logP) is 0.61. The cytotoxicity at 72 h, 50 ug/ml in series [4] was determined as 20.7%. The same molecule yielded an MIC in series [2] of 6.25 µg/mL (≈ 19.6 µM).

On to `O=C(Cn1cc(CCc2ccccc2)nn1)NC12CC3CC(CC(C3)C1)C2`, for which, in series [1], the logP stood at 3.03. In series [2], this molecule showed an MIC of 50 µg/mL (≈ 137 µM).

In series [1], `O=C(Cn1cc(C2(O)CCCC2)nn1)NC12CC3CC(CC(C3)C1)C2` gave a logP of 1.51. In series [2], this molecule gave an MIC of 50 µg/mL (≈ 145 µM).

In the case of `O=C(Cn1cc(C2(O)CCCCC2)nn1)NC12CC3CC(CC(C3)C1)C2`, the selectivity ratio in series [3] is more than 15. In addition, the logP in series [1] was 1.93. For the same molecule, the cytotoxicity at 72 h, 50 ug/ml in series [4] stood at 17.5%. This molecule gave an MIC in series [2] of 6.25 µg/mL (≈ 17.4 µM).

`O=C(Cn1cc(-c2ccccc2)nn1)NC12CC3CC(CC(C3)C1)C2`: in series [1], the logP amounted to 2.75. Moreover, in series [2], the MIC was 50 µg/mL (≈ 149 µM).

With `CC(C)(C)c1ccc(-c2cn(CC(=O)NC34CC5CC(CC(C5)C3)C4)nn2)cc1`, the logP in series [1] was determined as 4.46. This molecule also displayed an MIC in series [2] of 50 µg/mL (≈ 127 µM).

Regarding `COc1cccc(-c2cn(CC(=O)NC34CC5CC(CC(C5)C3)C4)nn2)c1`, in series [1], the logP came to 2.63. In series [2], this molecule gave an MIC of 25 µg/mL (≈ 68.2 µM).

`COc1ccc(-c2cn(CC(=O)NC34CC5CC(CC(C5)C3)C4)nn2)c(C)c1` had a logP in series [1] of 3.12. This molecule registered an MIC in series [2] of 50 µg/mL (≈ 131 µM).

With `O=C(Cn1cc(-c2ccc([N+](=O)[O-])cc2)nn1)NC12CC3CC(CC(C3)C1)C2`, the MIC in series [2] was 50 µg/mL (≈ 131 µM).

`O=C(Cn1cc(-c2ccc(F)cc2F)nn1)NC12CC3CC(CC(C3)C1)C2` showed a logP in series [1] of 3.07. The MIC in series [2] was 50 µg/mL (≈ 134 µM).

`O=C(Cn1cc(-c2ccc(F)c(F)c2)nn1)NC12CC3CC(CC(C3)C1)C2`: the logP in series [1] was 3.07. Further, in series [2], the MIC stood at 50 µg/mL (≈ 134 µM).

Turning to `O=C(Cn1cc(-c2ccc(C(F)(F)F)cc2)nn1)NC12CC3CC(CC(C3)C1)C2`, the logP in series [1] was 3.68. The molecule also showed an MIC in series [2] of 50 µg/mL (≈ 124 µM).

For `O=C(Cn1cc(-c2ccc(Cl)c(Cl)c2)nn1)NC12CC3CC(CC(C3)C1)C2`, the logP in series [1] was 3.87. The same molecule returned an MIC in series [2] of 50 µg/mL (≈ 123 µM).

As to `CCCCCc1ccc(-c2cn(CC(=O)NC34CC5CC(CC(C5)C3)C4)nn2)cc1`, the selectivity ratio in series [3] was more than 15. The logP in series [1] was determined as 4.91. The cytotoxicity at 72 h, 50 ug/ml in series [4] came out at 18.7%. This molecule also displayed an MIC in series [2] of 6.25 µg/mL (≈ 15.4 µM).

`CC(=O)c1ccc(C)cc1OCc1cn(CC(=O)NC23CC4CC(CC(C4)C2)C3)nn1`: in series [1], the logP was found to be 2.55. For the same molecule, the MIC in series [2] turned out to be 50 µg/mL (≈ 118 µM).

As to `COc1ccc2cc(-c3cn(CC(=O)NC45CC6CC(CC(C6)C4)C5)nn3)ccc2c1`, the logP in series [1] came out at 3.63. This molecule displayed an MIC in series [2] of 50 µg/mL (≈ 120 µM).

Turning to `O=C(Cn1cc(-c2cc3ccccc3c3ccccc23)nn1)NC12CC3CC(CC(C3)C1)C2`, in series [3], the selectivity ratio was more than 15. Besides, the logP in series [1] is 4.75. In series [4], the cytotoxicity at 72 h, 50 ug/ml turned out to be 20.1%. Also, the MIC in series [2] was found to be 3.12 µg/mL (≈ 7.15 µM).

Consider `O=C(Cn1cc(-c2ccsc2)nn1)NC12CC3CC(CC(C3)C1)C2`, for which the logP in series [1] was found to be 2.74. The molecule also registered an MIC in series [2] of 50 µg/mL (≈ 146 µM).

Consider `CC[C@@H](CO)NCCN[C@@H](CC)CO` [ETHAMBUTOL], for which the MIC in series [2] worked out at 3.13 µg/mL (≈ 15.3 µM).

For the molecule `NNC(=O)c1ccncc1` [ISONIAZID], the MIC in series [2] was determined as 0.1 µg/mL (≈ 0.729 µM).

With `NC(=O)c1cnccn1` [PYRAZINAMIDE], in series [2], the MIC is 50 µg/mL (≈ 406 µM).

For orientation: logP means a log measure of how a compound divides between an organic and an aqueous phase. High values mean higher lipophilicity, low ones lower lipophilicity.

The record behind these values is ChEMBL document CHEMBL3232935, “Design, synthesis and evaluation of 1,2,3-triazole-adamantylacetamide hybrids as potent inhibitors of Mycobacterium tuberculosis” (Bioorg Med Chem Lett, 2014).
